Several values for one entry are separate records, joined by “and”; a condition that tells them apart may be missing. Identical values can stand only once.
How the values were obtained:
[1] = test system: patients diagnosed with FXS; test: 10-week open-label trial of acamprosate in youth with FXS: behavioral outcome measures; assay type: in vivo, human; design: key to mean CGI-I at endpoint: CGI-I score: 1 = very much improved, 2 = much improved; conditions: for Aberrant Behavior Checklist-Social Avoidance (ABC-SA), End point (mean ± SD): baseline 3.3 ± 2.6; for Clinical Global Impressions-Severity (CGI-S), End point (mean ± SD): baseline 4.25 ± 0.45; for Clinical Global Impressions-Severity (CGI-S), End point (mean ± SD) / ADHD Rating Scale 4th Edition (ADHD-RS), End point (mean ± SD): p<0.0001; for Aberrant Behavior Checklist-Social Withdrawal (ABC-SW), End point (mean ± SD): baseline 8.8 ± 5.8, p=0.04 (Table 5: 7.33 ± 5.2, p=0.014); for Aberrant Behavior Checklist-Hyperactivity (ABC-H), End point (mean ± SD): baseline 16.8 ± 9.1, p=0.009; for ADHD Rating Scale 4th Edition (ADHD-RS), End point (mean ± SD): baseline 23.6 ± 10.6; for Vineland Adaptive Behavior Scale (VABS) Communication Domain, End point (mean ± SD): baseline 63.4 ± 10.1, p=0.03; for VABS Expressive Communication Subdomain, End point (mean ± SD): baseline 69.8 ± 23.0; for Social Responsiveness Scale total score (SRS), End point (mean ± SD): baseline 91.3 ± 27.4, p=0.005
Source text: The Institutional Review Board (IRB) at an academic medical center approved this study. Thirteen outpatient males and females aged 5 to 17 years with body weight≥15 kg were recruited for this study. Written informed consent was obtained from each participant's legal guardian (parent for all children in this report), and subjects provided assent when able. Diagnosis of FXS was confirmed by Southern Blot and PCR results consistent with a greater than 200 CGG repeat expansion in the fmr1 gene with at least partial gene methylation. Subjects had to be free of other significant medical conditions. The concomitant use of psychotropic drugs that are not thought to impact glutamate neurotransmission were allowed so long as the patients experienced stable dosing at least 4 weeks prior to baseline. Subjects were required to have a mental age of greater than 18 months as determined by the Stanford-Binet 5th Edition. Additional inclusion criteria included a CGI-S (Guy 1976) score of at least 4 (“Moderately Ill”). Subjects with a Diagnostic and Statistical Manual of Mental Disorders, 4th Edition, Text Revision (DSM-IV-TR) diagnosis of a psychotic disorder, bipolar disorder, or substance use disorder were excluded from the study. Additionally, subjects with a positive urine pregnancy test, creatinine clearance of <30, active seizure disorder, or other significant medical condition were excluded.
A 10-week, prospective, open-label study design was chosen to gather pilot data for potential future larger-scale, double-blind, placebo-controlled studies in this population.
All subjects underwent a screening and baseline visit followed by follow-up visits every 2 weeks during the 10-week open-label trial period. At the end of weeks 1, 3, and 5 the investigators called the parent to assess drug tolerability and to make dose adjustments as indicated. All subjects received 333 mg/day of acamprosate during the first week of the study. The investigators then increased the dosage to a maximum of 1,998 mg/day (weight>50 kg) or 1,332 mg/day (weight<50 kg) over the first six weeks of the study, if optimal clinical response (CGI-I equal to 1 “very much improved”) had not occurred and intolerable adverse effects had not emerged. The dose maintenance phase lasted 4 weeks at the optimal dosage.
The CGI-S assessment was administered at screen and at baseline as part of the eligibility criteria described above. In this study, the rater scored the CGI-S in regard to severity of symptoms commonly noted in FXS including, but not limited to, inattention/hyperactivity, social impairment, communication impairment, repetitive behavior, irritability, and anxiety. The CGI-S is rated on a scale from 1 to 7 (1=normal, not ill at all; 2=borderline ill; 3=mildly ill; 4=moderately ill; 5=markedly ill; 6=severely ill; 7=among the most extremely ill patients with FXS). The Autism Diagnostic Observation Schedule (ADOS) (Lord, Rutter et al. 1989) was administered at baseline to characterize potential concomitant ASD diagnosis.
The primary outcome measure was the CGI-I. The CGI-I is a scale designed to assess global change from baseline. […] Treatment response was defined by a CGI-I score of 1 “very much improved” or 2 “much improved.” In this study, the CGI-I was utilized as a general global primary outcome measure given the uncertainty as to what specific symptoms/behaviors associated with FXS may be expected to improve or worsen with use of acamprosate. The CGI-I was administered at all visits after baseline.
Secondary outcome measures included all subscales of the ABC (Irritability, Social Withdrawal, Stereotypy, Hyperactivity, and Inappropriate Speech). The ABC is an informant-rated (primary caregiver) measure with confirmed reliability and validity with regard to factor structure, distribution of scores, and sensitivity to change in persons with developmental disability (Aman, Singh et al. 1985). […]

alcohol intake = conditions: mouse, in vivo; cited from earlier work
[2] = test system: alcohol withdrawal associated anxiety; conditions: in vivo; cited from earlier work
[3] = FXS, n=12, 10 weeks, listed as acamprosate
[4] = FXS, mean change from baseline to endpoint divided by SD at baseline

CC(=O)NCCCS(=O)(=O)O [Acamprosate, 3-Acetamidopropane-1-sulfonic acid]
Treatment responders (CGI-I score of 1 very much improved or 2 much improved) ([1]; 12 youth with FXS, 10 weeks, mean final dose 1054 mg/day): 75% | Other subscales of the ABC and the CY-BOCS-PDD ([1]; FXS, 10 weeks): did not change significantly during treatment | SRS Social Awareness and Autistic Mannerisms subscales ([1]; FXS, 10 weeks): Improvement was not noted | decline of mean ABC-H score, baseline to endpoint ([1]; FXS, 10 weeks): 35% | decline of mean ABC-SA score, baseline to endpoint ([1]; FXS, 10 weeks): 51% | decline of mean ABC-SW score, baseline to endpoint ([1]; FXS, 10 weeks): 53% | decline of mean ADHD-RS score, baseline to endpoint ([1]; FXS, 10 weeks): 29% | decline of mean total SRS raw score, baseline to endpoint ([1]; FXS, 10 weeks): 16% | improvement of mean VABS Communication Domain standard score ([1]; FXS, 10 weeks): 5% | improvement of mean VABS Expressive Communication score ([1]; FXS, 10 weeks): 13% | other domains of the VABS ([1]; FXS, 10 weeks): No other changes with treatment were noted | Peabody Picture Vocabulary Test (PPVT), End point (mean ± SD) ([1]; FXS, 10 weeks, baseline 85.2 ± 32.0, p=0.53): did not significantly change with treatment | decline of SRS Social Motivation subscale ([1]; FXS, 10 weeks, p=0.003): 28% | decline of SRS Social Cognition subscale ([1]; FXS, 10 weeks, p=0.01): 19% | decline of SRS Social Communication subscale ([1]; FXS, 10 weeks, p=0.01): 14% | mean CGI-I at endpoint ([1]; FXS, Week 10, scale 1-7): 1.92 and 1.9 | Aberrant Behavior Checklist-Social Avoidance (ABC-SA), End point (mean ± SD) ([1]; FXS, n=12, 10 weeks, p=0.01): 1.6 ± 2.7 | Aberrant Behavior Checklist-Social Avoidance (ABC-SA), End point (mean ± SD) ([1]; FXS, n=12, 10 weeks, p=0.01, listed as acamprosate): 1.6 | Clinical Global Impressions-Severity (CGI-S), End point (mean ± SD) ([1]; FXS, n=12, 10 weeks): 3.33 ± 0.5 and 3.33 ± 0.49 | Clinical Global Impressions-Severity (CGI-S), End point (mean ± SD) [1, 3]: 3.33 | Aberrant Behavior Checklist-Inappropriate Speech (ABC-IS), End point (mean ± SD) ([1]; FXS, n=12, 10 weeks, baseline 5.2 ± 3.5, p=0.61): 4.8 ± 3.4 | Aberrant Behavior Checklist-Social Withdrawal (ABC-SW), End point (mean ± SD) ([1]; FXS, n=12, 10 weeks): 4.1 ± 6.5 | Aberrant Behavior Checklist-Social Withdrawal (ABC-SW), End point (mean ± SD) [1, 3]: 4.1 | Aberrant Behavior Checklist-Irritability (ABC-I), End point (mean ± SD) ([1]; FXS, n=12, 10 weeks, baseline 9.9 ± 7.8, p=0.11): 7.0 ± 8.9 | Children's Yale-Brown Obsessive Compulsive Scale Modified for PDD (CY-BOCS-PDD), End point (mean ± SD) ([1]; FXS, n=12, 10 weeks, baseline 11.1 ± 2.6, p=0.15): 9.8 ± 4.1 | Aberrant Behavior Checklist-Hyperactivity (ABC-H), End point (mean ± SD) ([1]; FXS, n=12, 10 weeks): 11.0 ± 8.6 | Aberrant Behavior Checklist-Hyperactivity (ABC-H), End point (mean ± SD) [1, 3]: 11.0 | ADHD Rating Scale 4th Edition (ADHD-RS), End point (mean ± SD) ([1]; FXS, n=12, 10 weeks): 16.7 ± 8 | ADHD Rating Scale 4th Edition (ADHD-RS), End point (mean ± SD) [1, 3]: 16.7 | Vineland Adaptive Behavior Scale (VABS) Communication Domain, End point (mean ± SD) ([1]; FXS, n=12, 10 weeks): 66.6 ± 11.2 | Vineland Adaptive Behavior Scale (VABS) Communication Domain, End point (mean ± SD) [1, 3]: 66.6 | VABS Expressive Communication Subdomain, End point (mean ± SD) ([1]; FXS, n=12, 10 weeks, p=0.003): 78.9 ± 21.2 | VABS Expressive Communication Subdomain, End point (mean ± SD) ([1]; FXS, n=12, 10 weeks, p=0.003, listed as acamprosate): 78.9 | Social Responsiveness Scale total score (SRS), End point (mean ± SD) ([1]; FXS, n=12, 10 weeks): 76.4 ± 26.8 and 76.42 ± 26.8 | Social Responsiveness Scale total score (SRS), End point (mean ± SD) [1, 3]: 76.4 | Effect Size, ABC-H [1, 4]: 0.64 | Effect Size, ABC-SA [1, 4]: 0.64 | Effect Size, ABC-SW [1, 4]: 0.81 | Effect Size, ADHD-RS [1, 4]: 0.65 | Effect Size, CGI-S [1, 4]: 2.0 | Effect Size, SRS total score [1, 4]: 0.54 | Effect Size, VABS Communication Domain [1, 4]: 0.32 | Effect Size, VABS Expressive Communication Subdomain [1, 4]: 0.4 | Effect Size, VABS Communication Domain ([1]; FXS, mean change from baseline to endpoint divided by SD at baseline, listed as acamprosate): 0.3 | youth judged responders to acamprosate (of those treated) ([1]; youth with FXS, pre-specified indicators of clinical response): 9 of 12 | alcohol intake (alcohol intake): reduced alcohol intake | alcohol withdrawal associated anxiety effects [2]: reduce alcohol withdrawal associated anxiety effects

From patent US11733243B2, “Use of acamprosate to modulate ERK1/2 activation in animal models for FXS and ASD and individuals diagnosed with FXS and ASD” (Indiana University Research and Technology Corporation, priority 2013, dated 2023)
